Experiments:
Human P2X3 receptor = target: T1, Human P2X3 receptor (Homo sapiens, UniProt P56373); assay: Inhibitory activity on human P2X3 receptor (FLIPR calcium 6 assay, HEK293-P2X3 cells, agonist α,β-MeATP); type: cell-based; details: HEK293-P2X3 stably expressing cell line, FLIPR Tetra
T1 construct: expressed in transfected cells; host or cells: HEK293 (stably expressing)
T1 sequence (P56373 1-397): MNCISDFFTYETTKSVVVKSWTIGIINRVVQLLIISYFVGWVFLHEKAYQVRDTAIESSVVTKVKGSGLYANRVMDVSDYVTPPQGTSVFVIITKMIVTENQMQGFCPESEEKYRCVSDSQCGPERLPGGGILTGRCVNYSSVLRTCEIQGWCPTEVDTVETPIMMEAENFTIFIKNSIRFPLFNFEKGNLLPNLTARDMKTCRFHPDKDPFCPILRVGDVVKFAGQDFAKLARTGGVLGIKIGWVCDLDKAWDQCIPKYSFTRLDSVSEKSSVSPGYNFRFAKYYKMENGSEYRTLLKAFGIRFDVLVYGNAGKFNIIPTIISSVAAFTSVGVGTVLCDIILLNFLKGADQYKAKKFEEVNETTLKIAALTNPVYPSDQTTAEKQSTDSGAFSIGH
Method: (§1) Biological Assay: Determination of the Inhibitory Activity of the Compounds on Human P2X3 and P2X2/3 Receptors
(§2) Cells were seeded into a poly-D-lysine-coated 384-well cell culture plate (Corning) at a density of 11,000 cells/well/25 μL of cell inoculation medium, and were cultured in a cell incubator overnight. On the day of the test, the calcium 6 dye was diluted to a 2× concentration with an assay buffer, 25 μL of the 2× calcium 6 dye was added to the 384-well cell culture plate, which was incubated at 37° C. for 2 hours, and then placed at room temperature for further use. The test compound and the agonist, α,β-MeATP were diluted to a 7× concentration with the assay buffer, 10 μL of the 7× test compound was added to the 384-well cell culture plate, which was incubated at room temperature for 15 minutes, and 10 μL of the 7× α,β-MeATP was transferred into the 384-well cell culture plate. […]

Human P2X2/3 receptor = target: T2, Human P2X2/3 receptor (Homo sapiens, UniProt P56373+Q9UBL9); assay: Inhibitory activity on human P2X2/3 receptor (FLIPR calcium 6 assay, HEK293-P2X2/3 cells, agonist α,β-MeATP); type: cell-based; details: HEK293-P2X2/3 stably expressing cell line, FLIPR Tetra
T2 construct: expressed in transfected cells; host or cells: HEK293 (stably expressing)
T2 sequence (P56373 1-397): T1 sequence (P56373 1-397)
T2 sequence (Q9UBL9 1-471): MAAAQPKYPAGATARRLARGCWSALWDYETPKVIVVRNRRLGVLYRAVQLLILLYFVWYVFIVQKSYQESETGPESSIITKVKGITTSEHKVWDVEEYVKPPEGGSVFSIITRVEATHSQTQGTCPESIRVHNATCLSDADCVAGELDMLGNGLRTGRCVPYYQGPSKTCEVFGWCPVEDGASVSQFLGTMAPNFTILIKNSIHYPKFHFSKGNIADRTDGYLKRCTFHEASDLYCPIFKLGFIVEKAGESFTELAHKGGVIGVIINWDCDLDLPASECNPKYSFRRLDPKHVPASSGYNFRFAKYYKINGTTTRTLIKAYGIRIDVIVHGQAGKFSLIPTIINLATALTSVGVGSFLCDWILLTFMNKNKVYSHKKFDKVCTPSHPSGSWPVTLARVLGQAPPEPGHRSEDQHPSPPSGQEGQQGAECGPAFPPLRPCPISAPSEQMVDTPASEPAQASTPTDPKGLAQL
Method: as §1, §2

IC50 (Human P2X3 receptor) [µM]	IC50 (Human P2X2/3 receptor) [µM]	SMILES
0.0605	0.1	CC(C)c1cnc2c(c1Oc1cnc(N)nc1N)CCN2 [Compound C1, 5-((5-isopropyl-2,3-dihydro-1H-pyrrolo[2,3-b]pyridin-4-yl)oxy)pyrimidin-2,4-diamine]
0.086	0.08	CC(C)c1cnc2[nH]ccc2c1Oc1cnc(N)nc1N [Compound C4, 5-((5-isopropyl-1H-pyrrolo[2,3-b]pyridin-4-yl)oxy)pyrimidin-2,4-diamine]
